Measurements from patent publication US7414071B2, “Methods of treatment with selective EP4 receptor agonists” (Pfizer Inc., priority 2002, dated 2008).

Assays:
M. fascicularis primates = experiment: In vivo primate model (hypotensive effect: mean arterial pressure and heart rate); conditions: monkeys; for mean arterial pressure (MAP) / heart rate (HR): 0.1 mgA/kg SC bolus, mean of 2; for mean arterial pressure (MAP): baseline 101; for heart rate (HR): baseline 161
[1] = test system: New Zealand White male rabbits; experiment: In vivo anesthetized rabbit model (hypotensive effect: mean arterial pressure and heart rate)
Experimental: Methods: New Zealand White male rabbits (3-4 kg) are anesthetized with sodium pentobarbital (30 mg/kg, i.v.) and a surgical plane of anesthesia is maintained by a continuous infusion of sodium pentobarbital (16 mg/kg/hr) via an ear vein catheter. A tracheotomy is performed through a ventral midline cervical incision and the rabbits are ventilated with 100% oxygen using a positive pressure ventilator. Body temperature is maintained at 38.5° C. using a heating pad connected to a YSI temperature controller model 72 (Yellow Springs Instruments, Yellow Springs, […].). Fluid-filled catheters are placed in the right jugular vein (for intravenous drug administration) and in the right carotid artery for arterial pressure monitoring and for blood gas analysis using a model 248 blood gas analyzer (Bayer Diagnostics, Norwood, Mass.). The ventilator is adjusted as needed to maintain blood pH and pCO2 within normal physiological ranges for rabbits. […] Blood is sampled after dosing or during the infusion of the test compound to determine plasma concentrations of the test compounds.
Thus, dosing volumes were 0.2 ml/kg (Group A) subcutaneously or 5 ml/h (Groups B, C, and D) as an intravenous (IV) infusion. The term “mgA” means the number of milligrams adjusted for active compound (e.g. corrected for salt etc.).
Dosing: Four groups (Groups A, B, C, and D) of two rabbits each were dosed as follows.

[2] = Group A, 1 mgA/kg SC, three monkeys
[3] = Group C, 0.1 mgA/kg SC, 2 monkeys
[4] = Group B, 167 μg/kg/h IV infusion

## O=C([O-])c1ccc(CCCN2C(=O)CC[C@@H]2CC[C@@H](O)Cc2cccc(C(F)(F)F)c2)s1.[Na+] [Compound 3M sodium salt]
M. fascicularis primates; Group A, 1 mgA/kg SC
  duration of hypotension: sustained over the 4 hours post-dose
  onset of hypotension: < 2 min
M. fascicularis primates; [2]
  effect on heart rate: transient increase in heart rate
  effect on mean arterial pressure: decrease in mean arterial pressure
M. fascicularis primates; Group C, 0.1 mgA/kg SC
  duration of hypotension: sustained over the 4 hours post-dose
  onset of hypotension: < 4 min
M. fascicularis primates; Group C, 5 min post-dose
  mean arterial pressure (MAP): 91 mm Hg
  heart rate (HR): 203 beats/minute
M. fascicularis primates; Group C, 10 min post-dose
  mean arterial pressure (MAP): 57 mm Hg
  heart rate (HR): 206 beats/minute
M. fascicularis primates; Group C, 15 min post-dose
  mean arterial pressure (MAP): 51 mm Hg
  heart rate (HR): 187 beats/minute
M. fascicularis primates; Group C, 30 min post-dose
  mean arterial pressure (MAP): 53 mm Hg
  heart rate (HR): 190 beats/minute
M. fascicularis primates; Group C, 60 min post-dose
  mean arterial pressure (MAP): 58 mm Hg
  heart rate (HR): 180 beats/minute
M. fascicularis primates; Group C, 90 min post-dose
  mean arterial pressure (MAP): 58 mm Hg
  heart rate (HR): 180 beats/minute
M. fascicularis primates; Group C, 120 min post-dose
  mean arterial pressure (MAP): 62 mm Hg
  heart rate (HR): 183 beats/minute
M. fascicularis primates; Group C, 150 min post-dose
  mean arterial pressure (MAP): 65 mm Hg
  heart rate (HR): 187 beats/minute
M. fascicularis primates; Group C, 180 min post-dose
  mean arterial pressure (MAP): 66 mm Hg
  heart rate (HR): 187 beats/minute
M. fascicularis primates; Group C, 210 min post-dose
  mean arterial pressure (MAP): 71 mm Hg
  heart rate (HR): 191 beats/minute
M. fascicularis primates; Group C, 240 min post-dose
  mean arterial pressure (MAP): 79 mm Hg
  heart rate (HR): 193 beats/minute
M. fascicularis primates; [3]
  effect on heart rate: transient increase in heart rate that returned toward normal but leveled off and remained elevated over the 4 hours post-dose
  effect on mean arterial pressure: decrease in mean arterial pressure
[1]; Group A, 1 mgA/kg SC
  duration of hemodynamic effect: sustained over the entire 4 hour post-dose interval
  effect on heart rate: increase in heart rate
  effect on mean arterial pressure: decrease in mean arterial pressure
  onset of hemodynamic effect: < 2 min
[1]; Group A, 1 mgA/kg SC bolus, 5 min post-dose, mean of 2, baseline 92
  mean arterial pressure (MAP): 69 mm Hg
[1]; Group A, 1 mgA/kg SC bolus, 5 min post-dose, mean of 2, baseline 243
  heart rate (HR): 268 beats/minute
[1]; Group A, 1 mgA/kg SC bolus, 10 min post-dose, mean of 2, baseline 92
  mean arterial pressure (MAP): 59 mm Hg
[1]; Group A, 1 mgA/kg SC bolus, 10 min post-dose, mean of 2, baseline 243
  heart rate (HR): 283 beats/minute
[1]; Group A, 1 mgA/kg SC bolus, 15 min post-dose, mean of 2, baseline 92
  mean arterial pressure (MAP): 60 mm Hg
[1]; Group A, 1 mgA/kg SC bolus, 15 min post-dose, mean of 2, baseline 243
  heart rate (HR): 285 beats/minute
[1]; Group A, 1 mgA/kg SC bolus, 30 min post-dose, mean of 2, baseline 92
  mean arterial pressure (MAP): 59 mm Hg
[1]; Group A, 1 mgA/kg SC bolus, 30 min post-dose, mean of 2, baseline 243
  heart rate (HR): 284 beats/minute
[1]; Group A, 1 mgA/kg SC bolus, 60 min post-dose, mean of 2, baseline 92
  mean arterial pressure (MAP): 59 mm Hg
[1]; Group A, 1 mgA/kg SC bolus, 60 min post-dose, mean of 2, baseline 243
  heart rate (HR): 288 beats/minute
[1]; Group A, 1 mgA/kg SC bolus, 90 min post-dose, mean of 2, baseline 92
  mean arterial pressure (MAP): 59 mm Hg
[1]; Group A, 1 mgA/kg SC bolus, 90 min post-dose, mean of 2, baseline 243
  heart rate (HR): 284 beats/minute
[1]; Group A, 1 mgA/kg SC bolus, 120 min post-dose, mean of 2, baseline 92
  mean arterial pressure (MAP): 58 mm Hg
[1]; Group A, 1 mgA/kg SC bolus, 120 min post-dose, mean of 2, baseline 243
  heart rate (HR): 278 beats/minute
[1]; Group A, 1 mgA/kg SC bolus, 150 min post-dose, mean of 2, baseline 92
  mean arterial pressure (MAP): 57 mm Hg
[1]; Group A, 1 mgA/kg SC bolus, 150 min post-dose, mean of 2, baseline 243
  heart rate (HR): 275 beats/minute
[1]; Group A, 1 mgA/kg SC bolus, 180 min post-dose, mean of 2, baseline 92
  mean arterial pressure (MAP): 60 mm Hg
[1]; Group A, 1 mgA/kg SC bolus, 180 min post-dose, mean of 2, baseline 243
  heart rate (HR): 273 beats/minute
[1]; Group A, 1 mgA/kg SC bolus, 210 min post-dose, mean of 2, baseline 92
  mean arterial pressure (MAP): 61 mm Hg
[1]; Group A, 1 mgA/kg SC bolus, 210 min post-dose, mean of 2, baseline 243
  heart rate (HR): 273 beats/minute
[1]; Group A, 1 mgA/kg SC bolus, 240 min post-dose, mean of 2, baseline 92
  mean arterial pressure (MAP): 65 mm Hg
[1]; Group A, 1 mgA/kg SC bolus, 240 min post-dose, mean of 2, baseline 243
  heart rate (HR): 273 beats/minute
[1]; [4]
  duration of hemodynamic effect: sustained over the entire 4 hour post-dose interval
  effect on heart rate: increase in heart rate
  effect on mean arterial pressure: decrease in mean arterial pressure
  onset of hemodynamic effect: < 2 min
[1]; Group B, 167 μg/kg/hr IV infusion for 4 hours, 5 min, mean of 2, baseline 87
  mean arterial pressure (MAP): 67 mm Hg
[1]; Group B, 167 μg/kg/hr IV infusion for 4 hours, 5 min, mean of 2, baseline 260
  heart rate (HR): 296 beats/minute
[1]; Group B, 167 μg/kg/hr IV infusion for 4 hours, 10 min, mean of 2, baseline 87
  mean arterial pressure (MAP): 67 mm Hg
[1]; Group B, 167 μg/kg/hr IV infusion for 4 hours, 10 min, mean of 2, baseline 260
  heart rate (HR): 296 beats/minute
[1]; Group B, 167 μg/kg/hr IV infusion for 4 hours, 15 min, mean of 2, baseline 87
  mean arterial pressure (MAP): 69 mm Hg
